The NIST ThermoML archive (doi:10.1021/je700260f)

Details: 313.15 K, Liquid, Vibrating tube method

FC(C(F)(F)F)C(F)(F)F [1,1,1,2,3,3,3-heptafluoropropane]
Details	mass density [kg/m3]
20571 kPa	1453
20603 kPa	1453
20639 kPa	1453.2
20675 kPa	1453.5
20721 kPa	1453.6
20757 kPa	1453.8
20799 kPa	1454.1
20826 kPa	1454.2
20865 kPa	1454.4
20902 kPa	1454.4
20933 kPa	1454.7
20969 kPa	1454.7
21003 kPa	1454.9
21049 kPa	1455
21080 kPa	1455.2
21213 kPa	1455.8
21240 kPa	1455.9
21275 kPa	1456
21319 kPa	1456.3
21355 kPa	1456.5
21405 kPa	1456.7
21435 kPa	1456.8
21466 kPa	1456.9
21512 kPa	1457.1
21547 kPa	1457.2
21593 kPa	1457.5
21628 kPa	1457.6
21665 kPa	1457.8
21700 kPa	1457.8
21742 kPa	1458
21776 kPa	1458.2
21813 kPa	1458.3
21844 kPa	1458.5
21885 kPa	1458.7
21927 kPa	1458.9
21953 kPa	1459
21990 kPa	1459.2
22027 kPa	1459.2
22064 kPa	1459.5
22100 kPa	1459.6
22131 kPa	1459.8
22172 kPa	1459.9
22203 kPa	1460.1
22245 kPa	1460.1
22276 kPa	1460.2
22312 kPa	1460.6
22349 kPa	1460.5
22385 kPa	1460.8
22411 kPa	1460.8
22447 kPa	1461
22489 kPa	1461.3
22532 kPa	1461.4
22579 kPa	1461.6
22611 kPa	1461.7
22653 kPa	1461.9
22684 kPa	1462.2
22722 kPa	1462.2
22758 kPa	1462.5
22796 kPa	1462.5
22828 kPa	1462.7
22876 kPa	1462.9
22922 kPa	1463.1
22954 kPa	1463.3
22986 kPa	1463.2
23028 kPa	1463.7
23054 kPa	1463.7
23096 kPa	1463.7
23132 kPa	1464
23180 kPa	1464.2
23217 kPa	1464.3
23384 kPa	1465
23422 kPa	1465.2
23463 kPa	1465.3
23511 kPa	1465.4
23548 kPa	1465.7
23585 kPa	1465.8
23623 kPa	1466
23672 kPa	1466.2
23710 kPa	1466.2
23760 kPa	1466.5
23805 kPa	1466.6
23840 kPa	1466.9
23893 kPa	1467
23939 kPa	1467.2
23980 kPa	1467.2
24015 kPa	1467.5
24073 kPa	1467.7
24121 kPa	1467.8
24163 kPa	1468.1
24204 kPa	1468.4
24258 kPa	1468.6
24299 kPa	1468.7
24341 kPa	1468.9
24400 kPa	1469.2
24441 kPa	1469.3
24471 kPa	1469.4
24517 kPa	1469.5
24552 kPa	1469.6
24586 kPa	1469.7
24643 kPa	1470
24690 kPa	1470.3
24731 kPa	1470.4
24772 kPa	1470.6
24813 kPa	1470.8
24848 kPa	1470.8
24899 kPa	1471.1
24951 kPa	1471.3
24991 kPa	1471.5
25031 kPa	1471.7
25225 kPa	1472.4
25266 kPa	1472.5
25303 kPa	1472.6
25346 kPa	1472.9
25382 kPa	1473
25428 kPa	1473.2
25464 kPa	1473.3
27024 kPa	1479.1
27078 kPa	1479.5
27113 kPa	1479.5
27168 kPa	1479.8
27215 kPa	1479.9
27250 kPa	1480.2
27333 kPa	1480.4
27378 kPa	1480.4
27415 kPa	1480.8
27452 kPa	1480.9
27512 kPa	1481.1
27562 kPa	1481.4
27616 kPa	1481.6
27789 kPa	1482.1
27894 kPa	1482.6
27923 kPa	1482.7
27959 kPa	1482.7
27997 kPa	1482.8
28031 kPa	1483
28065 kPa	1483.1
28094 kPa	1483.2
28137 kPa	1483.5
28166 kPa	1483.6
28213 kPa	1483.6
28253 kPa	1483.8
28282 kPa	1484
28311 kPa	1484
28349 kPa	1484.3
28389 kPa	1484.3
28424 kPa	1484.5
28465 kPa	1484.6
28499 kPa	1484.8
28538 kPa	1484.9
28567 kPa	1485
28613 kPa	1485.2
28643 kPa	1485.2
28674 kPa	1485.3
28717 kPa	1485.6
28761 kPa	1485.7
29100 kPa	1487
29135 kPa	1487
29166 kPa	1487.2
29208 kPa	1487.3
29239 kPa	1487.5
29269 kPa	1487.5
29305 kPa	1487.6
29341 kPa	1487.9
29381 kPa	1487.9
29416 kPa	1488
29450 kPa	1488.1
29496 kPa	1488.3
29525 kPa	1488.6
29570 kPa	1488.6
29610 kPa	1488.7
31429 kPa	1495.1
31477 kPa	1495.4
31513 kPa	1495.4
31554 kPa	1495.6
31782 kPa	1496.5
31819 kPa	1496.4
31856 kPa	1496.6
31894 kPa	1496.7
31931 kPa	1496.9
31964 kPa	1497
32008 kPa	1497.3
32040 kPa	1497.3
32094 kPa	1497.4
32170 kPa	1497.7
32235 kPa	1497.9
32288 kPa	1498.1
32326 kPa	1498.2
32700 kPa	1499.5
33062 kPa	1500.7
33127 kPa	1500.8
33176 kPa	1501.1
33220 kPa	1501.2
33258 kPa	1501.4
33290 kPa	1501.5
33332 kPa	1501.7
33375 kPa	1501.7
33408 kPa	1501.8
33462 kPa	1501.9
33502 kPa	1502.1
33551 kPa	1502.5
33585 kPa	1502.3
33640 kPa	1502.6
33684 kPa	1502.6
33729 kPa	1502.8
33763 kPa	1503
33807 kPa	1503.2
